{
  "source": "patent EP0584085B1",
  "about": "“ANTIBIOTIC CARBAPENEM DERIVATIVES” (ZENECA LIMITED, priority 1991, dated 1992)",
  "experiment_in_all_cases": "MIC by agar-dilution, Diagnostic Sensitivity Test agar",
  "type_in_all_cases": "cell-based",
  "key": {"[1]": {"test_system": "B. fragilis AMP R (542008)", "conditions": "Bacteroides fragilis, inoculum 10^4 CFU/spot", "excerpt": "(§1) The following results were obtained for representative compounds on a standard in vitro test system using Diagnostic Sensitivity Test agar medium. The antibacterial activity is described in terms of the minimum inhibitory concentration (MIC) determined by the agar-dilution technique with an inoculum size of 10^4 CFU/spot."}, "E.coli DCO (341098)": {"test_system": "E.coli DCO (341098)", "conditions": "Escherichia coli, inoculum 10^4 CFU/spot", "excerpt": "as §1"}, "[2]": {"test_system": "Ent.cloacae P99^- (401054)", "conditions": "Enterobacter cloacae", "excerpt": "as §1"}, "[3]": {"test_system": "P. aeruginosa 18S (101024)", "conditions": "Pseudomonas aeruginosa, inoculum 10^4 CFU/spot", "excerpt": "as §1"}, "[4]": {"test_system": "P.aeruginosa PU21 (101028)", "conditions": "Pseudomonas aeruginosa, inoculum 10^4 CFU/spot", "excerpt": "as §1"}, "Pr.morganii (433001)": {"test_system": "Pr.morganii (433001)", "conditions": "Morganella morganii, inoculum 10^4 CFU/spot", "excerpt": "as §1"}, "S.dublin (369001)": {"test_system": "S.dublin (369001)", "conditions": "Salmonella enterica, inoculum 10^4 CFU/spot", "excerpt": "as §1"}, "Serr.marcesens (421003)": {"test_system": "Serr.marcesens (421003)", "conditions": "inoculum 10^4 CFU/spot", "excerpt": "as §1"}, "St.aureus 147N (601052)": {"test_system": "St.aureus 147N (601052)", "conditions": "Staphylococcus aureus, inoculum 10^4 CFU/spot", "excerpt": "as §1"}, "Strep.pyogenes (681018)": {"test_system": "Strep.pyogenes (681018)", "conditions": "Streptococcus pyogenes, inoculum 10^4 CFU/spot", "excerpt": "as §1"}},
  "data": [
    {"molecule": "C[C@@H](O)[C@H]1C(=O)N2C(C(=O)O)=C(S[C@@H]3CN[C@H](C(=O)Nc4cc(O)c(O)c(C#N)c4)C3)[C@H](C)[C@H]12", "note": "[Example 2, (1R,5S,6S,8R,2'S,4'S)-2-(2-(5-Cyano-3,4-dihydroxyphenylcarbamoyl)pyrrolidin-4-ylthio)-6-(1-hydroxyethyl)-1-methyl-carbapenem-3-carboxylic acid]", "values": [
      {"measurement": "MIC", "setting": "[1]", "result": 0.25, "unit": "µg/mL"},
      {"measurement": "MIC", "setting": "E.coli DCO (341098)", "result": 0.015, "unit": "µg/mL"},
      {"measurement": "MIC", "setting": "[2]", "result": 0.015, "unit": "µg/mL"},
      {"measurement": "MIC", "setting": "[3]", "result": 0.06, "unit": "µg/mL"},
      {"measurement": "MIC", "setting": "[4]", "result": 0.25, "unit": "µg/mL"},
      {"measurement": "MIC", "setting": "Pr.morganii (433001)", "result": 0.125, "unit": "µg/mL"},
      {"measurement": "MIC", "setting": "S.dublin (369001)", "result": 0.008, "unit": "µg/mL"},
      {"measurement": "MIC", "setting": "Serr.marcesens (421003)", "result": 0.125, "unit": "µg/mL"},
      {"measurement": "MIC", "setting": "St.aureus 147N (601052)", "result": 0.25, "unit": "µg/mL"},
      {"measurement": "MIC", "setting": "Strep.pyogenes (681018)", "result": 0.008, "unit": "µg/mL"}
    ]}
  ]
}
